“Also recorded” adds a separate entry of the source.
Assays:
Assay type in all cases: physicochemical
[1] = Effect of heating on polymorph form
Description: (§1) X-Ray powder diffraction data were obtained by method known in the art using a SCINTAG powder X-Ray diffractometer model X'TRA equipped with a solid state detector. Copper radiation of 1.5418 Å was used. A round aluminum sample holder with round zero background quartz plate, with a cavity of 25(diameter)*0.5(depth) mm was used.
The heated sample was analyzed by XRD. Form A1 was obtained.
Various polymorph forms and mixtures thereof were heated. The heating conditions and resulting polymorph forms are described in table 17 below: […]

[2] = Water content (Karl Fischer) and loss on drying (TGA) of the form as obtained; settings: for Water content: by weight
Description: (§2) TGA analysis was performed using a Mettler M3 meter. The weight of the samples was about 10 mg. The samples were scanned at a rate of 10° C./min from 25° C. to 200° C. The oven was constantly purged with nitrogen gas at a flow rate of 40 ml/min. Standard 70 μl alumina crucibles covered by lids with 1 hole were used.
(§3) The water content of ladostigil tartrate was measured by methods known in the art, such Karl Fischer analysis.

[3] = Hygroscopicity study: exposure to 0-100% relative humidity at room temperature (Karl Fischer, TGA, crystal form by XRD)
Description: Form E was placed for 1 week under 0-100% relative humidity at room temperature. Table 1 summarizes the results:
Form F was placed for 14 days under 0-100% relative humidity at room temperature. Table 2 summarizes the results:
Form H was placed for 14 days under 0-100% relative humidity at room temperature. Table 3 summarizes the results:
Form J1 was placed for 9 days under 0-100% relative humidity at room temperature. Table 4 summarizes the results:
Table 5 summarizes the results:
as §1, §2, §3
Crystal form was determined after equilibration of ladostigil tartrate form A for 10 days at various relative humidities at room temperature.
Form A1 was exposed at various humidity conditions at room temperature for 13 days.
Ladostigil tartrate form A1 was exposed to various humidity conditions at room temperature for 14 days. TGA was performed, and the crystal form was analyzed.
A mixture of ladostigil tartrate form A1 and E, containing primarily form A1, was exposed at various humidity conditions at room temperature for 14 days.
Form E was placed for 7 days under 0-100% relative humidity at room temperature. Table 12 summarizes the results:
Form F was placed for 14 days under 0-100% relative humidity at room temperature. Table 14 summarizes the results:
Ladostigil tartrate Form H was exposed for 14 days under 0-100% relative humidity at room temperature. Table 15 summarizes the results:
Crystal ladostigil tartrate Form J1 was placed for 9 days under 0-100% relative humidity at room temperature.

[4] = Effect of micronization, pressing and grinding (XRD)
Description: The effects of micronization, pressing (1 minute at 100 metric tons) and grinding were determined by XRD and the following results were obtained: […]

[5] = Transformation of crystal form upon standing; settings: upon standing (a few hours)
Description: The wet material was determined to be polymorph C. Some of the samples contained polymorph C with low crystallinity. The wet material was dried at 55° C. under vacuum for 17 hours, giving polymorph E. The wet polymorph with low crystallinity was transformed to polymorph E with low crystallinity upon drying under the same conditions. Both polymorph E and polymorph E with low crystallinity were transformed to form A upon standing.
The wet material was dried at 80° C. under vacuum for 17 hours and polymorph E was formed.

[6] = 0% RH, 14 days, room temperature
[7] = 20% RH, 14 days, room temperature
[8] = 40% RH, 14 days, room temperature
[9] = 60% RH, 14 days, room temperature
[10] = 80% RH, 14 days, room temperature
[11] = 100% RH, 14 days, room temperature
[12] = 100% RH, equilibration 10 days, room temperature
[13] = pressing 1 minute at 100 metric tons
[14] = 0% RH, 9 days, room temperature
[15] = 40% RH, 9 days, room temperature
[16] = 60% RH, 9 days, room temperature
[17] = 100% RH, 9 days, room temperature

carbamic acid, ethylmethyl-, (3R)-2,3-dihydro-3-(2-propynylamino)-1H-inden-5-yl ester, (2R,3R)-2,3-dihydroxybutanedioate (2:1) [Form B]
Resulting form after heating/drying ([1]; 80° C., time not specified): mixture of Form A1 and form E, primarily form A1
Weight loss / loss on drying by TGA [2]: about 1%

carbamic acid, ethylmethyl-, (3R)-2,3-dihydro-3-(2-propynylamino)-1H-inden-5-yl ester, (2R,3R)-2,3-dihydroxybutanedioate (2:1) [Form F]
Crystal Form (resulting form) [3, 6]: Form F
Water content by Karl Fisher [3, 6]: 1.3%
Crystal Form (resulting form) [3, 7]: Form F
Loss on Dry by TGA [3, 7]: 3.0%
Water content by Karl Fisher [3, 7]: 2.2%
Crystal Form (resulting form) [3, 8]: Form F
Loss on Dry by TGA [3, 8]: 2.9%
Water content by Karl Fisher [3, 8]: 2.6%
Crystal Form (resulting form) [3, 9]: Form A1 + ~10% E
Loss on Dry by TGA [3, 9]: 0.3%
Water content by Karl Fisher [3, 9]: 0.3%
Crystal Form (resulting form) [3, 10]: Form A1 + ~20% A
Loss on Dry by TGA [3, 10]: 0.2%
Water content by Karl Fisher [3, 10]: 0.3%
Loss on Dry by TGA [3, 11]: 0.3%
Water content by Karl Fisher [3, 11]: 0.3%
Relative humidity range in which the form is stable ([3]; 14 days, room temperature): 0-40 % RH
Weight loss / loss on drying by TGA [2]: about 3%
Water content [2]: 1.3-2.6%

carbamic acid, ethylmethyl-, (3R)-2,3-dihydro-3-(2-propynylamino)-1H-inden-5-yl ester, (2R,3R)-2,3-dihydroxybutanedioate (2:1) [Form A]
Water content ([3]; 20% RH, equilibration 10 days, room temperature): 0.3%
Water content ([3]; 40% RH, equilibration 10 days, room temperature): 0.3%
Water content ([3]; 60% RH, equilibration 10 days, room temperature): 0.3%
Water content ([3]; 80% RH, equilibration 10 days, room temperature): 0.3%
Crystal Form [3, 12]: stable
Water content [3, 12]: 0.2%
Hygroscopicity ([3]; conclusion in words): neither Form A nor Form A1 is hygroscopic; also recorded: non-hygroscopic
Crystal form upon exposure to high relative humidity ([3]; high relative humidity, in words): does not change crystalline form
Crystal form after grinding ([4]; grinding): mixture of Forms A and A1
Crystal form after pressing [4, 13]: mainly to Form A1
Crystallinity after pressing [4, 13]: lose some extent of crystallinity
Weight loss / loss on drying by TGA [2]: about 0.3%
Water content [2]: about 0.3%

carbamic acid, ethylmethyl-, (3R)-2,3-dihydro-3-(2-propynylamino)-1H-inden-5-yl ester, (2R,3R)-2,3-dihydroxybutanedioate (2:1) [Form C]
Resulting form after heating/drying ([1]; 50° C. under vacuum, 1 hour): Form C was still detected
Resulting form after heating/drying ([1]; 50° C. under vacuum, 12 hours): Form B
Resulting form after heating/drying ([1]; 55° C. under vacuum, 17 hours): Form E
Resulting form after heating/drying ([1]; 55° C., 17 hours): Form B
Resulting form after heating/drying ([1]; 55° C., 19 hours): Form B
Weight loss / loss on drying by TGA [2]: about 40%
Water content [2]: about 2%

carbamic acid, ethylmethyl-, (3R)-2,3-dihydro-3-(2-propynylamino)-1H-inden-5-yl ester, (2R,3R)-2,3-dihydroxybutanedioate (2:1) [Form E]
Water content by Karl Fisher ([3]; 0% RH, 1 week (7 days), room temperature): 0.7%
Relative humidity range in which the form is stable ([3]; 1 week, room temperature): 0-60 % RH
Water content by Karl Fisher ([3]; 20% RH, 1 week (7 days), room temperature): 0.7%
Water content by Karl Fisher ([3]; 40% RH, 1 week (7 days), room temperature): 1.5%
Water content by Karl Fisher ([3]; 60% RH, 1 week (7 days), room temperature): 1.8%
Water content by Karl Fisher ([3]; 80% RH, 1 week (7 days), room temperature): 0.5%
Water content by Karl Fisher ([3]; 100% RH, 1 week (7 days), room temperature): 0.5%
Weight loss / loss on drying by TGA [2]: 0.7-2%
Water content [2]: 0.7-2%
Crystal form after standing ([5]; listed as Polymorph E): mixture of polymorphs A and A1
Crystal form after standing ([5]; listed as polymorph E): form A

carbamic acid, ethylmethyl-, (3R)-2,3-dihydro-3-(2-propynylamino)-1H-inden-5-yl ester, (2R,3R)-2,3-dihydroxybutanedioate (2:1) [Essentially Amorphous Form]
Weight loss / loss on drying by TGA [2]: about 5%
Water content [2]: about 2%

carbamic acid, ethylmethyl-, (3R)-2,3-dihydro-3-(2-propynylamino)-1H-inden-5-yl ester, (2R,3R)-2,3-dihydroxybutanedioate (2:1) [Form J1]
Crystal Form [3, 14]: Form J1
Loss on Dry by TGA [3, 14]: 5.4%
Water content by Karl Fisher [3, 14]: 0.1%
Crystal Form ([3]; 20% RH, 9 days, room temperature): partly to Form K; also recorded: Form K + ~20% J1
Crystal Form [3, 15]: Form K
Loss on Dry by TGA [3, 15]: 0.8%
Water content by Karl Fisher [3, 15]: 0.2%
Crystal Form [3, 16]: Form K
Loss on Dry by TGA [3, 16]: 0.5%
Water content by Karl Fisher [3, 16]: 0.2%
Crystal Form ([3]; 80% RH, 9 days, room temperature): Form A1 + ~20% A
Crystal Form [3, 17]: Form A + ~30% A1
Loss on Dry by TGA [3, 17]: 0.1%
Water content by Karl Fisher [3, 17]: 0.0%
Weight loss / loss on drying by TGA [2]: about 10%
Water content [2]: about 1%

carbamic acid, ethylmethyl-, (3R)-2,3-dihydro-3-(2-propynylamino)-1H-inden-5-yl ester, (2R,3R)-2,3-dihydroxybutanedioate (2:1) [Form L]
Resulting form after heating/drying ([1]; 60° C. in conventional oven, 2 hours): polymorphically stable
Weight loss / loss on drying by TGA [2]: 2.7-13.8%
Water content [2]: 0.6-1.4%

carbamic acid, ethylmethyl-, (3R)-2,3-dihydro-3-(2-propynylamino)-1H-inden-5-yl ester, (2R,3R)-2,3-dihydroxybutanedioate (2:1) [Form K]
Relative humidity range in which the form is stable ([3]; from the 9 day study of Form J1, room temperature): 20-60 % RH
Weight loss / loss on drying by TGA [2]: 0.5-0.8%
Water content [2]: about 0.2%

carbamic acid, ethylmethyl-, (3R)-2,3-dihydro-3-(2-propynylamino)-1H-inden-5-yl ester, (2R,3R)-2,3-dihydroxybutanedioate (2:1) [Form H]
Crystal Form (resulting form) [3, 6]: Form H
Loss on Dry by TGA [3, 6]: 6.1%
Water content by Karl Fisher [3, 6]: 0.42%
Crystal Form (resulting form) [3, 7]: Form F
Loss on Dry by TGA [3, 7]: 5.2%
Water content by Karl Fisher [3, 7]: 0.7%
Crystal Form (resulting form) [3, 8]: Form L
Loss on Dry by TGA [3, 8]: 2.7%
Water content by Karl Fisher [3, 8]: 1.4%
Crystal Form (resulting form) [3, 9]: Form A1 + ~30% E
Loss on Dry by TGA [3, 9]: 0.5%
Water content by Karl Fisher [3, 9]: 0.3%
Crystal Form (resulting form) [3, 10]: Form A1 + ~20% A
Loss on Dry by TGA [3, 10]: 0.2%
Water content by Karl Fisher [3, 10]: 0.2%
Crystal Form (resulting form) [3, 11]: Form A + ~30% A1
Loss on Dry by TGA [3, 11]: 0.2%
Water content by Karl Fisher [3, 11]: 0.3%
Weight loss / loss on drying by TGA [2]: about 6%
Water content [2]: about 0.6%

— patent publication US20090275653A1, “POLYMORPHIC FORMS OF LADOSTIGIL TARTRATE” (priority 2005, published 2009)
